The text below walks through data of publication PMC10531055, “Molecular Mechanism of Mutational Disruption of DCLK1 Autoinhibition Provides a Rationale for Inhibitor Screening” (International Journal of Molecular Sciences, 2023).

In this experiment the target is T1, DCLK1 (Doublecortin-like kinase 1) (Homo sapiens, UniProt O15075).
T1 construct: kinase domain (KD)
T1 sequence (O15075 390-647 limits assumed): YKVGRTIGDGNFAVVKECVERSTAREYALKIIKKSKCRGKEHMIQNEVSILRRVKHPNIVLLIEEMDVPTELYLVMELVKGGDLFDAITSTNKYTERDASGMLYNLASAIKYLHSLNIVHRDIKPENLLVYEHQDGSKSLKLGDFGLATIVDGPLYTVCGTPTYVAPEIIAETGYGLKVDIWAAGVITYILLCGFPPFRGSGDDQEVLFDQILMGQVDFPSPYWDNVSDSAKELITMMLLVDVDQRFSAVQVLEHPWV
Nature of the experiment: SPR (Biacore X-100, kinase domain immobilized on CM5 chip). It counts as binding.

The molecule `CCN1CCN(Cc2ccc(Nc3ncc(F)c(-c4cc(F)c5nc(C)n(C(C)C)c5c4)n3)nc2)CC1` [6ZV, Abemaciclib] registered a Kd of 1920 nM.
